Assay [1] relates to NCI-H1417 cells. The experiment in a line: In vitro cell inhibition assay - H1417 cell proliferation (CellTiter-Glo). The format is cell-based. The note with it: Homo sapiens, NCI-H1417, H1417 small cell lung cancer cell proliferation. Put shortly:
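Cells exposed to 8 compound concentrations (5-fold dilutions) in BEGM with 10% FBS for 7 days at 37° C., 5% CO2. Viable cells measured by CellTiter-Glo luminescence; inhibition versus no-inhibitor and no-cell controls, IC50 fitted.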
(Cellular ATP, detected with luciferase, serves as a proxy for viable cell number.)

For assay [2], the target named is LSD1 (Homo sapiens (Human), UniProt O60341). Briefly: In vitro enzyme inhibition assay - LSD1 (HTRF). Type of assay: biochemical. For orientation: In TR-FRET formats the signal depends on donor and acceptor labels being close together.
For assay [3], the target named is pan-HDAC. The experiment in a line: In vitro enzyme inhibition assay - HDAC (HDAC-Glo I/II), pan-HDAC. Type of assay: biochemical. The essentials:
(§1)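 Inhibition was measured with the HDAC-Glo I/II luminescent assay, testing compound as an 8-point, 5-fold dilution series from a 1 mM DMSO stock. Luminescence (RLU) was normalized to no-inhibitor and no-enzyme controls, and IC50 was derived by four-parameter variable-slope fitting.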

Assay [4] deals with HDAC8 (Homo sapiens (Human), UniProt Q9BY41). Briefly: In vitro enzyme inhibition assay - HDAC (HDAC-Glo I/II), HDAC8. The note with it: read-out: HDAC IC50 (nM) HDAC 8. Type of assay: biochemical. Put shortly:
as §1

Assay [5] has as its system NCI-H69 cells. The experiment in a line: In vitro cell inhibition assay - NCI-H69 cell proliferation (CellTiter-Glo). The format is cell-based. The note with it: Homo sapiens, NCI-H69, H69 small cell lung cancer cell proliferation. The essentials: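 Cells seeded at 1×10^3 per well and incubated overnight at 37° C., 5% CO2, then treated with 8-point 5-fold compound dilutions in RPMI-640 with 20% FBS for 7 days. Viable cells measured by CellTiter-Glo luminescence; IC50 fitted from inhibition relative to no-inhibitor and no-cell controls.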

The test system of assay [6] is DU145 cells. Briefly: In vitro cell inhibition assay - DU145 cell proliferation (CellTiter-Glo). Type of assay: cell-based. The note with it: Homo sapiens, DU-145, Du145 prostate cancer cell proliferation. Put shortly:
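Viability read-out was CellTiter-Glo luminescence after a 6-day, 37° C exposure of DU145 cells (1×10^3/well, 10% FBS RPMI-640) to 8 compound concentrations in 5-fold steps.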

Molecules are shown by their SMILES. Where a name gives a salt, the structure may show the parent alone.

HDAC8, sequence (Q9BY41 whole entry): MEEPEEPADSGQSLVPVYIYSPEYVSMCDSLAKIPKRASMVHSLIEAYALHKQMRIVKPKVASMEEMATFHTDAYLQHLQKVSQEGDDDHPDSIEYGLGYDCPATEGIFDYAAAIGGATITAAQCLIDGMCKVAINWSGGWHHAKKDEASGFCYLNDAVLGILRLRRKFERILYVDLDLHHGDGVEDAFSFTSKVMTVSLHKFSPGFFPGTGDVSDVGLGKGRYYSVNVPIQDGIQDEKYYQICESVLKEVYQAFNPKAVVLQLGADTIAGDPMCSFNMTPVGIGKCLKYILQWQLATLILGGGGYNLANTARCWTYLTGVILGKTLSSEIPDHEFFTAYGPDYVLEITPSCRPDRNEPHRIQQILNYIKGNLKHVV

Usually IC50 stands for the concentration that inhibits the measured activity by half. For `COc1ccc(-c2cnc(N3CCC(NCc4ccc(C#CC(=O)NO)cc4)CC3)c(C#N)c2-c2ccc(C#N)c(F)c2)cc1O` [Example 109, 3-(4-(1-(3-Cyano-4-(4-cyano-3-fluorophenyl)-5-(3-hydroxy-4-methoxyphenyl)pyridin-2-yl)piperidin-4-yl)amino)methyl) phenyl)-N-hydroxypropiolamide formate], the IC50 in assay [1] worked out at 2.76 nM; in assay [2], 4.19 nM; in assay [3], 657 nM; in assay [4], 391 nM; in assay [5] it was 411 nM; in assay [6] it was 3820 nM.
On to `COc1ccc(-c2cnc(N3CCC(NCCNc4ncc(C(=O)NO)cn4)CC3)c(C#N)c2-c2ccc(C#N)c(F)c2)cc1O` [Example 115, 2-(2-(1-(3-Cyano-4-(4-cyano-3-fluorophenyl)-5-(3-hydroxy-4-methoxyphenyl)pyridin-2-yl)piperidin-4-yl)amino)ethyl) amino)-N-hydroxypyrimidine-5-carboxamide formate], for which the IC50 in assay [1] came out at 2.25 nM; in assay [2], 0.16 nM; in assay [3], 20.6 nM; in assay [4], 37.1 nM; in assay [5] it was 3340 nM; in assay [6], 6340 nM.
As to `COc1ccc(-c2cnc(N3CCC(NCCc4ccc(CC(=O)NO)cc4)CC3)c(C#N)c2-c2ccc(C#N)c(F)c2)cc1O` [Example 120, 2-(4-(2-((1-(3-Cyano-4-(4-cyano-3-fluorophenyl)-5-(3-hydroxy-4-methoxyphenyl)pyridin-2-yl)piperidin-4-yl)amino)ethyl)phenyl)-N-hydroxyacetamide formate], the IC50 came out at 11.1 nM in assay [1]; 0.33 nM in assay [2]; 1310 nM in assay [3]; 1950 nM in assay [4]; 938 nM in assay [5]; 3770 nM in assay [6].
Regarding `COc1ccc(-c2cnc(N3CCC(NCC4CCN(c5ccc(C(=O)NO)cc5)CC4)CC3)c(C#N)c2-c2ccc(C#N)c(F)c2)cc1O` [Example 121, 4-(4-((1-(3-Cyano-4-(4-cyano-3-fluorophenyl)-5-(3-hydroxy-4-methoxyphenyl)pyridin-2-yl)piperidin-4-yl)amino)methyl) piperidin-1-yl)-N-hydroxybenzamide formate], the half-inhibitory concentration (IC50) in assay [1] turned out to be 15.6 nM; in assay [2], 0.35 nM; in assay [3], 404 nM; in assay [4], 17.2 nM; in assay [5] it was 127 nM; in assay [6] it was 2220 nM.
Turning to `COc1ccc(-c2cnc(N3CCC(NCCCc4ncc(C(=O)NO)s4)CC3)c(C#N)c2-c2ccc(C#N)c(F)c2)cc1O` [Example 125, 2-(3-(3-Cyano-4-(4-cyano-3-fluorophenyl)-5-(3-hydroxy-4-methoxyphenyl)pyridin-2-yl)piperidin-4-yl)amino)propyl)-N-hydroxythiazole-5-carboxamide formate], the IC50 in assay [1] was found to be 12 nM; in assay [2] it was 0.74 nM; in assay [3] it was 226 nM; in assay [4], 23.4 nM; in assay [5] it was 1950 nM; in assay [6], 3040 nM.
Take `COc1ccc(-c2cnc(N3CCC(NCc4ccc(OCC(=O)NO)c(OC)c4)CC3)c(C#N)c2-c2ccc(C#N)c(F)c2)cc1O` [Example 128, 2-(4-((1-(3-Cyano-4-(4-cyano-3-fluorophenyl)-5-(3-hydroxy-4-methoxyphenyl)pyridin-2-yl)piperidin-4-yl)amino)methyl)-2-methoxyphenoxy)-N-hydroxyacetamide formate]: the IC50 in assay [1] came out at 2.01 nM; in assay [2], 0.39 nM; in assay [3] it was 5 nM; in assay [4], 223 nM; in assay [5], 130 nM; in assay [6] it was 239 nM.
As for `N#Cc1ccc(-c2c(-c3ccc(C(F)(F)F)c(O)c3)cnc(N3CCC(NCc4ccc(/C=C/C(=O)NO)cc4)CC3)c2C#N)cc1F` [Example 129, (E)-3-(4-(1-(3-Cyano-4-(4-cyano-3-fluorophenyl)-5-(3-hydroxy-4-(trifluoromethyl)phenyl)pyridin-2-yl)piperidin-4-yl)amino)methyl) phenyl)-N-hydroxyacrylamide formate], the IC50 was determined as 4.38 nM in assay [1]; 1.47 nM in assay [2]; 18.2 nM in assay [3]; 322 nM in assay [4]; 25.8 nM in assay [5]; 86.9 nM in assay [6].
With `COc1ccc(-c2cnc(N3CCC(NCc4ccc(/C=C/C(=O)NO)cc4OC)CC3)c(C#N)c2-c2ccc(C#N)c(F)c2)cc1O` [Example 132, (E)-3-(4-(((1-(3-Cyano-4-(4-cyano-3-fluorophenyl)-5-(3-hydroxy-4-methoxyphenyl)pyridin-2-yl)piperidin-4-yl)amino)methyl)-3-methoxyphenyl)-N-hydroxyacrylamide formate], the IC50 in assay [1] turned out to be 13.2 nM; in assay [2], 10.8 nM; in assay [3], 3.86 nM; in assay [4], 171 nM; in assay [5] it was 103 nM; in assay [6], 235 nM.
For `Cn1cnc2cc(-c3cnc(N4CCC(NCc5ccc(/C=C/C(=O)NO)cc5)CC4)c(C#N)c3-c3ccc(C#N)c(F)c3)ccc21` [Example 136, (E)-3-(4-(((1-(3-Cyano-4-(4-cyano-3-fluorophenyl)-5-(1-methyl-1H-benzo[d]imidazol-5-yl))pyridin-2-yl)piperidin-4-yl)amino)methyl) phenyl)-N-hydroxyacrylamide formate], the IC50 in assay [1] was 29.1 nM; in assay [2] it was 17.2 nM; in assay [3], 10.4 nM; in assay [4], 77.7 nM; in assay [5], 93.7 nM; in assay [6], 364 nM.
Turning to `COc1ccc(-c2cnc(N3CCC4(CC3)CN(Cc3ccc(/C=C/C(=O)NO)cc3)C4)c(C#N)c2-c2ccc(C#N)c(F)c2)cc1O` [Example 138, (E)-3-(4-(((7-(3-Cyano-4-(4-cyano-3-fluorophenyl)-5-(3-hydroxy-4-methoxyphenyl)pyridin-2-yl)-2,7-diazaspiro[3.5]nonan-2-yl)methyl)phenyl)-N-hydroxyacrylamide formate], the IC50 came to 30.7 nM in assay [1]; 21.4 nM in assay [2]; 61 nM in assay [3]; 401 nM in assay [4]; 91.6 nM in assay [5]; 372 nM in assay [6].
Turning to `N#Cc1ccc(-c2c(-c3ccc(OC(F)F)c(O)c3)cnc(N3CCC(NCc4cnc(/C=C/C(=O)NO)nc4)CC3)c2C#N)cc1F` [Example 145, (E)-3-(5-(((1-(3-Cyano-4-(4-cyano-3-fluorophenyl)-5-(4-(difluoromethoxy)-3-hydroxyphenyl)pyridin-2-yl)piperidin-4-yl)amino)methyl)pyrimidin-2-yl)-N-hydroxyacrylamide formate], the IC50 in assay [1] was determined as 18.6 nM; in assay [2], 3.35 nM; in assay [3], 5.23 nM; in assay [4], 74.9 nM; in assay [5], 39.3 nM; in assay [6] it was 37.8 nM.
In the case of `COc1ccc(-c2cnc(N3CCC(NCc4ncc(/C=C/C(=O)NO)s4)CC3)c(C#N)c2-c2ccc(C#N)c(F)c2)cc1O` [Example 151, (E)-3-(2-(((1-(3-Cyano-4-(4-cyano-3-fluorophenyl)-5-(3-hydroxy-4-methoxyphenyl)pyridin-2-yl)piperidin-4-yl)amino)methyl)thiazol-5-yl)-N-hydroxyacrylamide hydrochloride], the half-maximal inhibitory concentration (IC50) in assay [1] came out at 10.4 nM; in assay [2], 2.7 nM; in assay [3] it was 27.4 nM; in assay [4], 618 nM; in assay [5], 189 nM; in assay [6], 308 nM.

The record behind these values is patent US20250304549A1, “HYDROXYAMIDE DERIVATIVE AND USE THEREOF” (SICHUAN HUIYU PHARMACEUTICAL CO., LTD., priority 2022, published 2025).
